The text below walks through data of article PMC6895912 (Cancers, 2019).

“Also recorded” adds a separate entry of the source.

Assay [1] has as its system CWR-R1, CWR-R1 (10E), CWR-R1-MTX20nM cells. Briefly: Colony formation (clonogenicity) assay. The assay is classed as cell-based, human. The settings on record: parental CWR-R1 and drug-resistant counterparts, 14 days. The source says:
(A) Comparative GI50 values of Gal, NGGAs, and enzalutamide (ENZ) in drug-naïve-/-resistant prostate cancer cells. (B) Gal and NGGAs induce G1 cell cycle arrest in LNCaP cells. (C) VNPP414 and VNPP433-3β deplete the cell cycle regulator, cyclin D1, and upregulate p21; “+” indicates specific treatments. (D) Gal cause dose-dependent depletion of cyclin D1. (E) Unlike ENZ, Gal and VNPP433-3β inhibit colony formation of drug-naïve/-resistant cells in vitro. 1000 cells/well (CWR-R1, CWR-R1 (10E), CWR-R1-MTX20nM), seeded in 6-well plates were treated with indicated concentrations of compounds for a period of 14 days. Media containing compounds were replaced every 3 days. Colonies were stained with 0.05% crystal violet. (F) Quantification of colony formation units (CFU) in drug-naive/resistant cells. Colony assays were repeated three times and colonies counted in four quadrants of the wells. Results are represented as averages with S.E.M. (* p < 0.05, ** p < 0.001). Note: the numbers in parentheses in Figure 2B,C,E are concentrations of the agents in µM.
0.1 × 10^3 cells per well were seeded in 6-well plates and allowed to attach overnight (16 h), cells were treated with compounds in regular media (RPMI with 10% FBS) at the indicated concentrations and replaced every 3rd day for 14 days or until visible colonies could be counted. Colonies were washed and stained with 0.05% crystal violet for 30 min. Colonies were scanned and quantified (colonies counted in four quadrants of each well) with ImageJ colony counter. Results are represented as the mean of triplicates.

The next assay has as its system CWR22Rv1 xenografts. Briefly: Antitumor efficacy in castration-resistant CWR22Rv1 xenograft model. It is filed as in vivo, male NOD SCID mice. The following applies: 25 mg/kg PO once daily, 16 days; listed as ENZ. On the procedure:
Following the in vitro studies and determination of the PK parameters, we then investigated the relative efficacy. Gal and the NGGAs in vivo using difficult-to-treat castration-resistant CWR22Rv1 xenografts. Given the enhanced IP and PO PK parameters of VNPP414 and VNPP433-3β over Gal, we decided to use lower doses of the new analogs compared to the previous Gal doses (200 mg/kg, IP/PO). Gal (200 mg/kg) served as positive control, while ENZ (25 mg/kg) administered PO was used as negative control. Male NOD SCID mice bearing CWR22Rv1 tumors were treated with vehicle, ENZ, Gal, VNPP414, and VNPP433-3β for 16 days as described in the Methods and Materials Section. […] In contrast, Gal and the NGGAs caused statistically significant tumor growth inhibition (TGI). […] It is notable that VNPP433-3β (at 7.5- and 15-fold lower molar doses) and VNPP414 (at 4-fold lower molar dose) are more efficacious than Gal. In general, no host toxicities were observed, as monitored by changes in animal body weight (Figure 7C).
Figure 7 Effects of Gal, NGGAs and ENZ in an in vivo castration-resistant prostate cancer model. (A) Mice bearing CWR22Rv1 xenografts (5 mice per group) were treated with vehicle, Gal (100 mg/kg/twice daily), VNPP414 (60 mg/kg, once daily), VNPP433-3β (15 or 30 mg/kg, once daily) and ENZ (25 mg.kg, once daily) 5 days per week for 16 days. Tumor volumes were measured twice a week and the tumors were collected. Tumor growth inhibition (TGI) values are indicated at the right of each growth curve, and the error bars are the SEM. Results are represented as means ± SEM. ^# p = ns (not significant vs. vehicle), ^$ p < 0.0272 vs. vehicle, * p < 0.0035 vs. vehicle, ** p < 0.0025 vs. vehicle and *** p < 0.0008 vs. vehicle. (B) Photographed tumors from each group. (C) Mean body weights of mice determined during the study. (D) Western blot analyses of tumor samples from each experimental group at day 16. […] It is left out because vehicle is a control, not a substance.
Male NOD SCID mice 5–6 weeks of age were obtained from University of Maryland School of Medicine Veterinary Resources (Baltimore, MD, USA. Mice were housed under complete aseptic conditions, fed autoclaved pellets and sterile water ad libitum. Following a week of acclimatization, approximately 5 × 10^6 CWR22Rv1 cells were inoculated one flank f mice. Tumor-bearing mice (tumor volume around ~100 mm^3) were randomized into 6 groups (5 mice in each group; compounds formulated in vehicle) and treated as follows: (i) vehicle control (40% β-cyclodextrin in saline, PO.), (ii) ENZ (25 mg/kg, PO, once daily), (iii) Gal (100mg/kg, PO, twice daily), (iv) VNPP414 (60 mg/kg, PO, once daily), (v) VNPP433-3β (15 mg/kg, PO, once daily), and (vi) VNPP433-3β (30 mg/kg, PO, once daily) for 5 days/week. Tumors were measured twice weekly with calipers and tumor volume was calculated by the formula: length × width^2 × 0.5 (mm^3). Animals were also weighed weekly and monitored for general health status and signs of possible toxicity due to treatments. Mice were sacrificed after the indicated periods of treatment and tumors excised. Tumors were divided and either flash frozen in liquid nitrogen or placed in 10% buffered formalin for western blot analysis.

Regarding `CNC(=O)c1ccc(N2C(=S)N(c3ccc(C#N)c(C(F)(F)F)c3)C(=O)C2(C)C)cc1F` [Enzalutamide, reference compound], the “inhibition of colony formation” value in assay [1] is “ineffective at the concentrations tested”. Also, the “tumor volume versus vehicle-treated control (in words)” value in the assay on CWR22Rv1 xenografts was “ineffective; also recorded: no statistically significant difference”.
